# Experimental data as given in US20030207830A1, “Mutant NDP kinases for antiviral nucleotide analog activation and therapeutic uses thereof” (priority 2002, published 2003).
# Key:
# [1] = molecular target: T1, Inactive-N119S Dd-NDPK (EI-N119S) (Dictyostelium discoideum, UniProt P22887, F64W/H122G/N119S); test: Equilibrium fluorescence titration of nucleotide binding, inactive Dd-NDPK variant with N119S; details: relative affinity of NTP for both enzymes
# T1 construct: made in house
# Procedure: (§1) All numbers in italics have already been published (Schneider, 1998, 2000) The kinetic constants were measured at the pre-steady-state level using a fluorescence stopped-flow device. The binding constants were determined at equilibrium by recording the increase in fluorescence (Schneider, 2000). Values are the average of three independent determinations.
# In contrast to what is observed with natural nucleotides, the Ser mutation specifically improves the catalytic efficiency with nucleotides analogs as shown in Table I; ddGTPs and AZT-TP react, respectively, 1.5 and 4 times faster with the N119S enzyme. […] Analog binding affinity was measured using a variant of Dd-NDPK (EI) as described (Schneider, 2000). This mutant (H122G-F64W) lacks the catalytic histidine, and a tryptophan replaces the phenylalanine stacking on the base in the active site (Schneider, 2000). The mutation N119S was inserted in EI in order to measure the nucleotide affinity by fluorescence titration. The Ser contribution to the binding was evaluated from the relative affinity of NTP for both enzymes (Table I).
# for N119S, N119T and N119Y mutations, respectively. Altered bases as compared to the wild type sequence are underlined in bold. Sequences were checked by automatic sequencing. The mutant EI-N119S was obtained by mutation of the previously described F64W-H122G mutated NDP kinase (here called EI) (Schneider 2000).
# [2] = molecular target: T2, Dictyostelium discoideum NDP kinase (Dd-NDPK) variant N119S, SEQ ID NO: 1 (Dictyostelium discoideum, UniProt P22887, N119S); test: Pre-steady-state phosphotransfer, fluorescence stopped-flow; type: biochemical; details: for k2/Ks: catalytic efficiency of phosphotransfer, N119S, pre-steady state; for reaction with N119S relative to wild type (times faster): from k2/Ks of Table I
# T2 construct: made in house
# [3] = molecular target: T3, Dictyostelium NDP Kinase N119S (Dictyostelium discoideum, UniProt P22887, N119S); test: Pre-steady-state fluorescence stopped-flow phosphotransfer from nucleoside triphosphates, N119S Dd-NDPK; type: biochemical; details: for times faster reaction with the N119S enzyme than wild type: from Table I; for k2/Ks N119S (catalytic efficiency of phosphotransfer): pre-steady state, stopped-flow, average of three determinations
# T3 construct: made in house
# Procedure: as §1
# As the diphosphate form of analogs were not always available, the triphosphate analogs were used to study phosphate transfer in reaction as in Scheme I. Experiments were performed with an Hi-Tech DX2 microvolume stopped-flow reaction (Schneider, 1998) at Aexc=296 nm (for Ado derivatives) or […] (for other nucleotides), 2 mm excitation slit and a 320 nm cutoff filter at the emission. After mixing NDPK (1 μM) and NTP or an analogTP (10-500 μM), the intrinsic protein fluorescence was recorded for 10-200 sec. In each experiment, 400 pairs of data were recorded, and the data from 3-4 identical experiments were averaged and fitted to a number of non-linear analytical equations using the software provided by Hi-Tech. All curves fitted to single exponentials.
# The data were analyzed using the reaction scheme: [drawing 1]
# In both the forward and the reverse reactions, the product concentration remains very low, thus the product binding can be neglected, and the observed single step could be attributed to the phosphotransfer (Schneider, 1998). The rate of this observed single step is: [formula]
# and reaches a limiting value (k+2) at NTP saturation. Saturation could not be obtained with the concentrations of any NTP used here. Therefore, catalytic efficiencies of phosphorylation (CEphos=k+2/(k−1/k+1)=k+2/KS) were measured, which are equivalent to second order constants and allow a reliable comparison of a variety of NDP kinase substrates.
# [4] = molecular target: T4, human NDP kinase A (NDPK-A) variant N115S, SEQ ID NO: 2 (Homo sapiens, UniProt P15531, N115S); test: Pre-steady-state phosphotransfer, fluorescence stopped-flow; type: biochemical; details: for k2/Ks: catalytic efficiency of phosphotransfer, N115S, pre-steady state; for Specificity change (R): ratio of catalytic efficiencies analog vs natural nucleotide, mutant vs wild type
# T4 construct: made in house; host or cells: E. coli
# [5] = molecular target: T5, human NDP kinase A (NDPK-A) variant L55H-N115S, SEQ ID NO: 3 (Homo sapiens, UniProt P15531, L55H/N115S); test: as above; type: biochemical; details: for k2/Ks: catalytic efficiency of phosphotransfer, L55H-N115S, pre-steady state; for Specificity change (R): ratio of catalytic efficiencies analog vs natural nucleotide, mutant vs wild type
# T5 construct: made in house; host or cells: E. coli
# T5 sequence (P15531 whole entry L55H/N115S): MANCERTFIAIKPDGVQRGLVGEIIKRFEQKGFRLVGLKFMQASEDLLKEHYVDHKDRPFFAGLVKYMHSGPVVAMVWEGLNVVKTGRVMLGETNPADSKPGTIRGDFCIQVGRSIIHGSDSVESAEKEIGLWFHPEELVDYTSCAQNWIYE
# T4 sequence (P15531 whole entry N115S): as the sequence (P15531 whole entry L55H/N115S) above, with H55L counted along it
# T2 sequence (P22887 whole entry N119S): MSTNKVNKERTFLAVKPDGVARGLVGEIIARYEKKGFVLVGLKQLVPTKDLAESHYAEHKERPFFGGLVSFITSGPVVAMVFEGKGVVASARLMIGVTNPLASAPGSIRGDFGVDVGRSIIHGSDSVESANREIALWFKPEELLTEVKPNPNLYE
# T3 sequence (P22887 whole entry N119S): as above
# T1 sequence (P22887 whole entry F64W/N119S/H122G): as the sequence (P22887 whole entry N119S) above, with F64W, H122G counted along it
SMILES,factor by which Ser 119 reinforces affinity (EI-N119S versus EI) [1],k2/Ks [2],reaction with N119S relative to wild type (times faster) [2],times faster reaction with the N119S enzyme than wild type [3],k2/Ks N119S (catalytic efficiency of phosphotransfer) [3],k2/Ks [4],Specificity change (R) [4],k2/Ks [5],Specificity change (R) [5]
Cc1cn([C@H]2C[C@H](N=[N+]=[N-])[C@@H](COP(=O)(O)OP(=O)(O)OP(=O)(O)O)O2)c(=O)[nH]c1=O [AZT-TP],15 fold,1100 M⁻¹ s⁻¹,4 times,4 times,1100 M⁻¹ s⁻¹,900 M⁻¹ s⁻¹,(125),6770 M⁻¹ s⁻¹,(240)
"Nc1nc2c(ncn2[C@H]2CC[C@@H](COP(=O)(O)OP(=O)(O)OP(=O)(O)O)O2)c(=O)[nH]1 [ddGTP, dideoxy-GTP]",2 fold,3500 M⁻¹ s⁻¹,1.5 times,1.5 times,3500 M⁻¹ s⁻¹,750 M⁻¹ s⁻¹,(60),4200 M⁻¹ s⁻¹,(160)
